Consider 39 compounds from patent US11560370B1, “5-membered heteroaryl carboxamide compounds for treatment of HBV” (Assembly Biosciences, Inc., priority 2018, dated 2023).

One assay concerns HBV. As to the kind of experiment: Viral production from HepAD38 cells, viral load by qPCR of HBV core sequence. Type of assay: cell-based. Particulars: 5 days, supernatant HBV DNA by qPCR, read-out: Viral Load EC50 Activity range. In short, it runs like this:
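HepAD38 cells in tetracycline-free medium with 2% FBS, 50,000 cells/well, treated 5 days at 37° C. with compound from 10 μM top concentration (1% DMSO final). Supernatant HBV DNA measured by TaqMan qPCR of core sequence against standards, versus DMSO wells; viability by CellTiter-Glo; EC50/CC50 by four-parameter fit.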
On the technique in general: In qPCR the cycle at which signal appears reflects the starting amount.
What is called EC50 is the concentration giving half of the maximal effect. As for `Cn1nc(C2CC3CCCC3C2)c(C(=O)Nc2ccc(F)c(Cl)c2)c1N` (stereo not drawn) [AIA-232], the EC50 is below 0.1 µM.

For the compound `Cn1nc(C2CC3CC(O)(CC(=O)O)CC3C2)c(C(=O)Nc2ccc(F)c(Cl)c2)c1N` (stereo not drawn) [AIA-241], the EC50 was below 0.1 µM.

On to `Cn1nc(C2CC3CC(O)(COC(F)F)CC3C2)c(C(=O)Nc2ccc(F)c(Cl)c2)c1N` (stereo not drawn) [AIA-253-1], for which the EC50 is below 0.1 µM.

As to `CCC1OC[C@]2(CC3C[C@H](c4nn(C)c(N)c4C(=O)Nc4ccc(F)c(Cl)c4)C[C@@H]3C2)O1` (stereo partly drawn) [AIA-255-5], the EC50 is below 0.1 µM.

As for `CC(C)C1(O)CC2C[C@@H](c3nn(C)c(N)c3C(=O)Nc3ccc(F)c(Cl)c3)C[C@H]2C1O` (stereo partly drawn) [AIA-257-1], the EC50 was below 0.1 µM.

In the case of `Cn1nc(C2CC3CC(O)(C(C)(C)O)CC3C2)c(C(=O)Nc2ccc(F)c(Cl)c2)c1N` (stereo not drawn) [AIA-257], the EC50 was below 0.1 µM.

As to `Cn1nc(C2CCN(c3ccccc3)C2)c(C(=O)Nc2ccc(F)c(Cl)c2)c1N` (stereo not drawn) [AIA-262], the EC50 was in the range of 0.1 to 0.5 µM.

For the compound `Cn1nc(C2CC3CC(O)(C(=O)NC4CC4)CC3C2)c(C(=O)Nc2ccc(F)c(Cl)c2)c1N` (stereo not drawn) [AIA-274-2, 5-Amino-N-(3-chloro-4-fluorophenyl)-3-(5-(cyclopropylcarbamoyl)-5-hydroxyoctahydropentalen-2-yl)-1-methyl-1H-pyrazole-4-carboxamide], the EC50 is below 0.1 µM.

As for `Cn1nc(C2CC3COC(=O)CC3C2)c(C(=O)Nc2ccc(F)c(Cl)c2)c1N` (stereo not drawn) [AIA-275], the EC50 was below 0.1 µM.

As to `COc1cccc([C@H]2CC[C@H](c3nn(C)c(N)c3C(=O)Nc3ccc(F)c(Cl)c3)C2)c1` [AIA-276C], the EC50 was below 0.1 µM.

Take `COc1cccc(C2CCC(c3nn(C)c(N)c3C(=O)Nc3ccc(F)c(Cl)c3)C2)c1` (stereo not drawn) [AIA-276]: the EC50 is below 0.1 µM.

Turning to `Cn1nc(C2CC3CC(O)(CSCCO)CC3C2)c(C(=O)Nc2ccc(F)c(Cl)c2)c1N` (stereo not drawn) [AIA-283], the EC50 was below 0.1 µM.

Consider `Cn1nc(C2CC3CC(O)(CSCCN4CCOCC4)CC3C2)c(C(=O)Nc2ccc(F)c(Cl)c2)c1N` (stereo not drawn) [AIA-284], for which the half-maximal effective concentration (EC50) is below 0.1 µM.

On to `COC1CC2CC(c3nn(C)c(N)c3C(=O)Nc3ccc(F)c(Cl)c3)CC2C1` (stereo not drawn) [AIA-285], for which the EC50 is below 0.1 µM.

Consider `CC(=O)NC1CC2CC(c3nn(C)c(N)c3C(=O)Nc3ccc(F)c(Cl)c3)CC2C1` (stereo not drawn) [AIA-288], for which the EC50 is below 0.1 µM.

As for `Cn1nc(C2CC3CC4(CC3C2)OCCO4)c(C(=O)Nc2ccc(F)c(Cl)c2)c1N` (stereo not drawn) [AIA-290], the EC50 is below 0.1 µM.

On to `CS(=O)(=O)CC1(O)CC2CC(c3n[nH]c(N)c3C(=O)Nc3ccc(F)c(Cl)c3)CC2C1` (stereo not drawn) [AIA-310], for which the EC50 is below 0.1 µM.

Still in this assay, the particulars now being: Hepatitis B virus, HePAD38, 120 h, 5 days, supernatant HBV DNA by qPCR, read-out: Viral Load EC50 Activity range.
For the compound `Cn1nc([C@H]2CC3C[C@](O)(CS(C)(=O)=O)CC3C2)c(C(=O)Nc2ccc(F)c(Cl)c2)c1N` (stereo partly drawn) [AIA-227-2, 5-Amino-N-(3-chloro-4-fluorophenyl)-3-((2s,5s)-5-hydroxy-5-(methylsulfonylmethyl)octahydropentalen-2-yl)-1-methyl-1H-pyrazole-4-carboxamide], the concentration for a half-maximal effect (EC50) is below 0.1 µM.

For `Cn1nc(C2CC3CC(N4CCNC(=O)C4)CC3C2)c(C(=O)Nc2ccc(F)c(C#N)c2)c1N` (stereo not drawn) [AIA-246, 5-Amino-N-(3-cyano-4-fluorophenyl)-1-methyl-3-(5-(3-oxopiperazin-l-yl)octahydropentalen-2-yl)-1H-pyrazole-4-carboxamide], the EC50 is below 0.1 µM.

For the compound `Cn1nc(C2CC3CC(O)(CS(=O)(=O)C4CC4)CC3C2)c(C(=O)Nc2ccc(F)c(Cl)c2)c1N` (stereo not drawn) [AIA-252-1, 5-Amino-N-(3-chloro-4-fluorophenyl)-3-(5-((cyclopropylsulfonyl)methyl)-5-hydroxyortahydropentalen-2-yl)-1-methyl-1H-pyrazole-4-carboxamide], the EC50 was below 0.1 µM.

Turning to `Cn1nc(C2CC3CC(O)(COCC(F)(F)F)CC3C2)c(C(=O)Nc2ccc(F)c(Cl)c2)c1N` (stereo not drawn) [AIA-254, 5-Amino-N-(3-chloro-4-fluorophenyl)-3-((2s,5s)-5-hydroxy-5-((2,2,2-trifluoroethoxy)methyl)octahydropentalen-2-yl)-1-methyl-1H-pyrazole-4-carboxamide], the EC50 is below 0.1 µM.

Turning to `Cn1nc(C2CC3CC(O)(CSCC(F)(F)F)CC3C2)c(C(=O)Nc2ccc(F)c(Cl)c2)c1N` (stereo not drawn) [AIA-258-1, 5-Amino-N-(3-chloro-4-fluorophenyl)-3-(5-hydroxy-5-(((2,2,2-trifluoroethyl)thio)methyl)octahydropentalen-2-yl)-1-methyl-1H-pyrazole-4-carboxamide], the EC50 was below 0.1 µM.

For `Cn1nc(C2CC3CC(O)(C[S+]([O-])CC(F)(F)F)CC3C2)c(C(=O)Nc2ccc(F)c(Cl)c2)c1N` (stereo not drawn) [AIA-259-A, 5-Amino-N-(3-chloro-4-fluorophenyl)-3-((2r,5r)-5-hydroxy-5-((2,2,2-trifluoroethylsulfinyl)methyl)octahydropentalen-2-yl)-1-methyl-1H-pyrazole-4-carboxamide], the EC50 was below 0.1 µM.

For `Cn1nc(C2CC3CC(O)(CSC(C)(C)C)CC3C2)c(C(=O)Nc2ccc(F)c(Cl)c2)c1N` (stereo not drawn) [AIA-262-1, 5-Amino-3-(5-((tert-butylthio)methyl)-5-hydroxyoctahydropentalen-2-yl)-N-(3-chloro-4-fluorophenyl)-1-methyl-1H-pyrazole-4-carboxamide], the 50% effective concentration (EC50) is below 0.1 µM.

For the compound `CN(C)S(=O)(=O)CC1(O)CC2CC(c3nn(C)c(N)c3C(=O)Nc3ccc(F)c(Cl)c3)CC2C1` (stereo not drawn) [AIA-265, 5-Amino-N-(3-chloro-4-fluorophenyl)-3-(5-((N,N-dimethylsulfamoyl)methyl)-5-hydroxyoctahydropentalen-2-yl)-1-methyl-1H-pyrazole-4-carboxamide], the EC50 was below 0.1 µM.

On to `CN(C)C(=O)CC1(O)CC2CC(c3nn(C)c(N)c3C(=O)Nc3ccc(F)c(Cl)c3)CC2C1` (stereo not drawn) [AIA-270, 5-Amino-N-(3-chloro-4-fluorophenyl)-3-(5-(2-(dimethylamino)-2-oxoethyl)-5-hydroxyoctahydropentalen-2-yl)-1-methyl-1H-pyrazole-4-carboxamide], for which the EC50 was below 0.1 µM.

As to `Cn1nc(C2CCC(c3ccccc3Cl)C2)c(C(=O)Nc2ccc(F)c(Cl)c2)c1N` (stereo not drawn) [AIA-272, 5-Amino-N-(3-chloro-4-fluorophenyl)-3-(3-(2-chlorophenyl)cyclopentyl)-1-methyl-1H-pyrazole-4-carboxamide], the EC50 is below 0.1 µM.

Turning to `Cn1nc(C2CCC(c3ccc(Cl)cc3)C2)c(C(=O)Nc2ccc(F)c(Cl)c2)c1N` (stereo not drawn) [AIA-274, 5-Amino-N-(3-chloro-4-fluorophenyl)-3-(3-(4-chlorophenyl)cyclopentyl)-1-methyl-1H-pyrazole-4-carboxamide], the EC50 lay in the range of 0.1 to 0.5 µM.

Consider `Cn1nc(C2CC3CC(O)(C(=O)NC4CC4)CC3C2)c(C(=O)Nc2ccc(F)c(Cl)c2)c1N` (stereo not drawn) [AIA-274-1, 5-Amino-N-(3-chloro-4-fluorophenyl)-3-(5-(cyclopropylcarbamoyl)-5-hydroxyoctahydropentalen-2-yl)-1-methyl-1H-pyrazole-4-carboxamide], for which the EC50 was below 0.1 µM.

For `Cn1nc(C2CCC(c3ccccc3)C2)c(C(=O)Nc2cc(F)c(F)c(Br)c2)c1N` (stereo not drawn) [AIA-278, 5-Amino-N-(3-bromo-4,5-difluorophenyl)-1-methyl-3-(3-phenylcyclopentyl)-1H-pyrazole-4-carboxamide], the EC50 was 0.1 to 0.5 µM.

For `Cn1nc(C2CCC(c3ccccc3)C2)c(C(=O)Nc2ccc(F)c(C#N)c2)c1N` (stereo not drawn) [AIA-279, 5-Amino-N-(3-cyano-4-fluorophenyl)-1-methyl-3-(3-phenylcyclopentyl)-1H-pyrazole-4-carboxamide], the concentration giving a half-maximal response (EC50) is below 0.1 µM.

On to `Cn1cnc(C2CCC(c3nn(C)c(N)c3C(=O)Nc3ccc(F)c(Cl)c3)C2)c1` (stereo not drawn) [AIA-280, 5-Amino-N-(3-chloro-4-fluoro-phenyl)-1-methyl-3-[3-(1-methylimidazol-4-yl)cyclopentyl]pyrazole-4-carboxamide], for which the EC50 fell in the range of 0.1 to 0.5 µM.

Regarding `Cn1nc(C2CCC(c3ccc(F)cc3)C2)c(C(=O)Nc2ccc(F)c(Cl)c2)c1N` (stereo not drawn) [AIA-281, 5-Amino-N-(3-chloro-4-fluorophenyl)-3-(3-(4-fluorophenyl)cyclopentyl)-1-methyl-1H-pyrazole-4-carboxamide], the EC50 was below 0.1 µM.

With `Cn1nc(C2CCC(c3ccc(OC(F)(F)F)cc3)C2)c(C(=O)Nc2ccc(F)c(Cl)c2)c1N` (stereo not drawn) [AIA-292, 5-Amino-N-(3-chloro-4-fluorophenyl)-1-methyl-3-(3-(4-(trifluoromethoxy)phenyl)cyclopentyl)-1H-pyrazole-4-carboxamide], the EC50 was 0.5 to 10 µM.

As to `CN(C)c1ccc(C2CCC(c3nn(C)c(N)c3C(=O)Nc3ccc(F)c(Cl)c3)C2)cc1` (stereo not drawn) [AIA-293, 5-Amino-N-(3-chloro-4-fluorophenyl)-3-(3-(4-(dimethylamino)phenyl)cyclopentyl)-1-methyl-1H-pyrazole-4-carboxamide], the EC50 was below 0.1 µM.

As to `CC(=O)Nc1ccc(C2CCC(c3nn(C)c(N)c3C(=O)Nc3ccc(F)c(Cl)c3)C2)cc1` (stereo not drawn) [AIA-294, 3-(3-(4-Acetamidophenyl)cyclopentyl)-5-amino-N-(3-chloro-4-fluorophenyl)-1-methyl-1H-pyrazole-4-carboxamide], the EC50 is below 0.1 µM.

Take `CC(C)Oc1ccc(C2CCC(c3nn(C)c(N)c3C(=O)Nc3ccc(F)c(Cl)c3)C2)cc1` (stereo not drawn) [AIA-296, 5-Amino-N-(3-chloro-4-fluorophenyl)-3-(3-(4-isopropoxyphenyl)cyclopentyl)-1-methyl-1H-pyrazole-4-carboxamide]: the EC50 is below 0.1 µM.

For `COCCOc1ccc(C2CCC(c3nn(C)c(N)c3C(=O)Nc3ccc(F)c(Cl)c3)C2)cc1` (stereo not drawn) [AIA-297, 5-Amino-N-(3-chloro-4-fluorophenyl)-3-(3-(4-(2-methoxyethoxy)phenyl)cyclopentyl)-1-methyl-1H-pyrazole-4-carboxamide], the EC50 was below 0.1 µM.

Turning to `Cn1nc(C2CC3CC(O)(CS(=O)(=O)CCCN4CCNC(=O)C4)CC3C2)c(C(=O)Nc2ccc(F)c(Cl)c2)c1N` (stereo not drawn) [AIA-350, 5-Amino-N-(3-chloro-4-fluorophenyl)-3-(5-hydroxy-5-(((3-(3-oxopiperazin-1-yl)propyl)sulfonyl)methyl)octahydropentalen-2-yl)-1-methyl-1H-pyrazole-4-carboxamide], the EC50 fell in the range of 0.5 to 10 µM.
